Holding throughout (format): binding
Assay [1] deals with T1, TjapOBP3 (Trissolcus japonicus, UniProt A0A7G6J4J9).
T1 construct: gene OBP3; mature, signal peptide removed; E. coli BL21; His-tag cleaved; ~15 kDa on SDS-PAGE; classical OBP; by primers starts KLSVPQLK and ends CWYHKNPEMYIFP
T1 sequence (A0A7G6J4J9 22-142): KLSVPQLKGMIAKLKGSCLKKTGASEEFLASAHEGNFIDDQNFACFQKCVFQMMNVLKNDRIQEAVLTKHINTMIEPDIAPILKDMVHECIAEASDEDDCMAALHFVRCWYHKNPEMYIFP
As to the kind of experiment: fluorescence titration, Scatchard. The following applies: 50 mM Tris-HCl pH 7.4; excitation 337 nm; fluorescent probe.

The target in assay [2] is T2, TjapOBP2 (Trissolcus japonicus, UniProt A0A7G6J4J8).
T2 construct: gene OBP2; mature, signal peptide removed; E. coli BL21; His-tag cleaved; ~15 kDa on SDS-PAGE; classical OBP; by primers starts KRPDFIDDDM and ends QCIINNCPEMWFIV
T2 sequence (A0A7G6J4J8 23-142): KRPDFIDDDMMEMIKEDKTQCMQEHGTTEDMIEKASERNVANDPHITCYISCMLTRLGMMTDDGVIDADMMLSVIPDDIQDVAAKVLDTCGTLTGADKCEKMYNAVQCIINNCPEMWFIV
The experiment in a line: fluorescence titration, Scatchard. The following applies: 50 mM Tris-HCl pH 7.4; excitation 337 nm; fluorescent probe.

For assay [3], the target named is T1, TjapOBP3. As to the kind of experiment: competitive fluorescence displacement of 1-NPN. The settings on record: 50 mM Tris-HCl pH 7.4; excitation 337 nm; competitive with 1-NPN.
The target in assay [4] is T2, TjapOBP2. The experiment in a line: competitive fluorescence displacement of 1-NPN.

Molecules are shown by their SMILES.

Turning to `c1ccc(Nc2cccc3ccccc23)cc1` [1-NPN], the K1-NPN entry on TjapOBP3 [1] and on TjapOBP2 [2] was “The fluorescent probe 1-NPN was used to bind the selected OBPs” throughout.

Broadly, the IC50 is the concentration needed to halve the response being measured. Low readings indicate higher potency, high ones lower potency. With `CCCCCCC/C=C/C=O` [(E)-2-decenal], the “competitive fluorescence displacement of 1-NPN” value on TjapOBP3 [3] is “TjapOBP1 and TjapOBP3 had a weak ability to bind (E)-2-decenal”. The same compound displayed an IC50 on TjapOBP2 [4] of 7.92 ± 1.03 µM.

For the origin of these results see paper PMC7494974, “Olfactory Reception of Host Alarm Pheromone Component by the Odorant-Binding Proteins in the Samurai Wasp, Trissolcus japonicus (Hymenoptera: Scelionidae)” (Frontiers in Physiology, 2020).
